These results are taken from PubChem BioAssay AID256 (DTP/NCI, 2004).

“And” between values parts separate entries of the source, which are not always exact repeats. Equal entries are not always repeated. Inconclusive results and toxic doses are left out.

For this experiment, the system named is CD2F1 mice, L1210 leukemia ip, survival T/C. As to the kind of experiment: NCI In Vivo Anticancer Drug Screen. Data for tumor model L1210 Leukemia (intraperitoneal) in CD2F1 (CDF1) mice. The note with it: higher = longer survival. A digest of the protocol:
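Implant tumor; dose compound or vehicle; measure endpoint in both groups; report treated divided by control.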

The mark [1] stands for this setting: endpoint: mean survival time, dose: 50.0 mg/kg/injection, schedule: Q01DX009 (ip), vehicle: saline with Tween-80.
Setting [2] is: endpoint: mean survival time, dose: 100.0 mg/kg/injection, schedule: Q01DX009 (ip), vehicle: saline with Tween-80.
Setting [3] is: endpoint: mean survival time, dose: 200.0 mg/kg/injection, schedule: Q01DX009 (ip), vehicle: saline with Tween-80.
The mark [4] stands for this setting: endpoint: mean survival time, dose: 100.0 mg/kg/injection, schedule: Q04DX003 (ip), vehicle: saline with Tween-80.
[5] abbreviates: endpoint: mean survival time, dose: 200.0 mg/kg/injection, schedule: Q04DX003 (ip), vehicle: saline with Tween-80.
The mark [6] stands for this setting: endpoint: mean survival time, dose: 400.0 mg/kg/injection, schedule: Q04DX003 (ip), vehicle: saline with Tween-80.

Take `CS(=O)(=O)OCC(=O)C(=O)COS(C)(=O)=O`: the T/C runs as follows: (endpoint: mean survival time, dose: 25.0 mg/kg/injection, schedule: Q01DX001 (ip), vehicle: saline) 91 % of control; (endpoint: mean survival time, dose: 50.0 mg/kg/injection, schedule: Q01DX001 (ip), vehicle: saline) 94 % of control; (endpoint: mean survival time, dose: 100.0 mg/kg/injection, schedule: Q01DX001 (ip), vehicle: saline) 96 % of control and 103 % of control.

Turning to `CCOC(=O)c1ccc(-c2ccc(C(=O)OCC)o2)o1`, the T/C reads like this: (endpoint: mean survival time, dose: 50.0 mg/kg/injection, schedule: Q04DX002 (ip), vehicle: saline) 101 % of control; (endpoint: mean survival time, dose: 100.0 mg/kg/injection, schedule: Q04DX002 (ip), vehicle: saline) 93 % of control; (endpoint: mean survival time, dose: 200.0 mg/kg/injection, schedule: Q04DX002 (ip), vehicle: saline) 97 % of control.

As to `CC(Cc1ccccc1)NC=O` (stereo not drawn), the T/C is, setting by setting: under setting [1], 97 % of control; under setting [2], 97 % of control.

As to `O=C(O)C(=O)C(O)C(O)C(O)CO.O=C(O)C(=O)C(O)C(O)C(O)CO.[NH-]C1CCCCC1[NH-].[Pt+2]` (stereo not drawn), the T/C is, setting by setting: (endpoint: median survival time, dose: 3.12 mg/kg/injection, schedule: Q04DX003 (ip), vehicle: saline) 110 % of control and 111 % of control; (endpoint: median survival time, dose: 6.25 mg/kg/injection, schedule: Q04DX003 (ip), vehicle: saline) 115 % of control and 112 % of control; (endpoint: median survival time, dose: 12.5 mg/kg/injection, schedule: Q04DX003 (ip), vehicle: saline) 122 % of control; (endpoint: median survival time, dose: 50.0 mg/kg/injection, schedule: Q04DX003 (ip), vehicle: saline) 185 % of control and 188 % of control; (endpoint: median survival time, dose: 100.0 mg/kg/injection, schedule: Q04DX003 (ip), vehicle: saline) 250 % of control and 270 % of control; (endpoint: median survival time, dose: 200.0 mg/kg/injection, schedule: Q04DX003 (ip), vehicle: saline) 175 % of control.

`CCCNC1=C(C)C(=O)C2=C(C1=O)[C@@H](COC(N)=O)[C@]1(O)[C@H]3[C@@H](CN21)N3C` (stereo partly drawn): the T/C was 98 % of control and 103 % of control (endpoint: mean survival time, dose: 1.5 mg/kg/injection, schedule: Q01DX001 (ip), vehicle: water); 97 % of control and 103 % of control (endpoint: mean survival time, dose: 3.0 mg/kg/injection, schedule: Q01DX001 (ip), vehicle: water); 98 % of control and 101 % of control (endpoint: mean survival time, dose: 6.0 mg/kg/injection, schedule: Q01DX001 (ip), vehicle: water); 98 % of control and 103 % of control (endpoint: mean survival time, dose: 12.0 mg/kg/injection, schedule: Q01DX001 (ip), vehicle: water); 97 % of control and 101 % of control (endpoint: mean survival time, dose: 24.0 mg/kg/injection, schedule: Q01DX001 (ip), vehicle: water); 100 % of control (endpoint: mean survival time, dose: 50.0 mg/kg/injection, schedule: Q01DX001 (ip), vehicle: distilled water + Tween-80). For the same molecule, the T/C (endpoint: mean survival time, dose: 100.0 mg/kg/injection, schedule: Q01DX001 (ip), vehicle: distilled water + Tween-80) is 108 % of control.

As for `O=C1c2ccccc2C(=O)c2c(NCCN3CCCCC3)ccc(NCCN3CCCCC3)c21`, the T/C (endpoint: mean survival time, dose: 8.0 mg/kg/injection, schedule: Q01DX009 (ip), vehicle: acid diluted with saline) was 100 % of control; the T/C (endpoint: mean survival time, dose: 16.0 mg/kg/injection, schedule: Q01DX009 (ip), vehicle: acid diluted with saline) was 102 % of control; the T/C (endpoint: mean survival time, dose: 32.0 mg/kg/injection, schedule: Q01DX009 (ip), vehicle: acid diluted with saline) is 110 % of control; the T/C (endpoint: mean survival time, dose: 64.0 mg/kg/injection, schedule: Q01DX009 (ip), vehicle: acid diluted with saline) is 104 % of control.

As to `CC1(CCCc2ccc(N(CCCl)CCCl)cc2)NC(=O)NC1=O` (stereo not drawn), the T/C is, setting by setting: (endpoint: mean survival time, dose: 50.0 mg/kg/injection, schedule: Q01DX009 (ip), vehicle: Klucel (hydroxypropylcellulose) (HPC)) 114 % of control; (endpoint: mean survival time, dose: 100.0 mg/kg/injection, schedule: Q01DX009 (ip), vehicle: Klucel (hydroxypropylcellulose) (HPC)) 93 % of control; (endpoint: mean survival time, dose: 200.0 mg/kg/injection, schedule: Q01DX009 (ip), vehicle: Klucel (hydroxypropylcellulose) (HPC)) 86 % of control.

Consider `CCOC(=O)C1C(=O)N(C)C(=O)N1Cc1ccccc1` (stereo not drawn), for which the T/C (endpoint: mean survival time, dose: 12.5 mg/kg/injection, schedule: Q01DX009 (ip), vehicle: other) is 93 % of control; the T/C (endpoint: mean survival time, dose: 25.0 mg/kg/injection, schedule: Q01DX009 (ip), vehicle: other) is 89 % of control; the T/C (endpoint: mean survival time, dose: 50.0 mg/kg/injection, schedule: Q01DX009 (ip), vehicle: other) is 101 % of control; the T/C (endpoint: mean survival time, dose: 100.0 mg/kg/injection, schedule: Q01DX009 (ip), vehicle: other) is 101 % of control; the T/C (endpoint: mean survival time, dose: 200.0 mg/kg/injection, schedule: Q01DX009 (ip), vehicle: other) is 101 % of control.

For `C=CCC(Cc1ccccc1)C1=NC(C)(C)CC(C)O1` (stereo not drawn), the T/C is, setting by setting: under setting [1], 101 % of control; (endpoint: mean survival time, dose: 100.0 mg/kg/injection, schedule: Q01DX001 (ip), vehicle: saline with Tween-80) 97 % of control; under setting [2], 97 % of control; (endpoint: mean survival time, dose: 200.0 mg/kg/injection, schedule: Q01DX001 (ip), vehicle: saline with Tween-80) 103 % of control; under setting [3], 94 % of control.

For the molecule `Cc1cccc(=N)n1CCC(=O)O`, the T/C is, setting by setting: (endpoint: mean survival time, dose: 100.0 mg/kg/injection, schedule: Q01DX009 (ip), vehicle: saline) 95 % of control; (endpoint: mean survival time, dose: 100.0 mg/kg/injection, schedule: Q04DX003 (ip), vehicle: saline) 112 % of control; (endpoint: mean survival time, dose: 200.0 mg/kg/injection, schedule: Q01DX009 (ip), vehicle: saline) 98 % of control; (endpoint: mean survival time, dose: 200.0 mg/kg/injection, schedule: Q04DX003 (ip), vehicle: saline) 94 % of control; (endpoint: mean survival time, dose: 400.0 mg/kg/injection, schedule: Q01DX009 (ip), vehicle: saline) 95 % of control; (endpoint: mean survival time, dose: 400.0 mg/kg/injection, schedule: Q04DX003 (ip), vehicle: saline) 96 % of control.

For `O=C(CCl)Nc1cccc(Cl)c1`, the T/C was 92 % of control under setting [2]; 97 % of control under setting [4]; 95 % of control under setting [3]; 111 % of control under setting [5]; 104 % of control under setting [6].

Take `O=[N+]([O-])c1cc(Cl)cc2c1-c1ccc(Cl)cc1C2Br` (stereo not drawn): the T/C (endpoint: mean survival time, dose: 50.0 mg/kg/injection, schedule: Q01DX001 (ip), vehicle: carboxymethylcellulose (CMC)) was 104 % of control; the T/C (endpoint: mean survival time, dose: 100.0 mg/kg/injection, schedule: Q01DX001 (ip), vehicle: carboxymethylcellulose (CMC)) is 98 % of control; the T/C (endpoint: mean survival time, dose: 200.0 mg/kg/injection, schedule: Q01DX001 (ip), vehicle: carboxymethylcellulose (CMC)) was 104 % of control; the T/C (endpoint: mean survival time, dose: 400.0 mg/kg/injection, schedule: Q01DX001 (ip), vehicle: carboxymethylcellulose (CMC)) is 104 % of control.

As to `CC(=O)OCc1ccc(Cl)cc1Cl`, the T/C is 98 % of control under setting [2]; 104 % of control under setting [3]; 95 % of control (endpoint: mean survival time, dose: 400.0 mg/kg/injection, schedule: Q01DX009 (ip), vehicle: saline with Tween-80).

On to `CC(C)([NH-])C[NH-].O=C(O)CCO.[Pt+2]`, for which the T/C was 255 % of control (endpoint: median survival time, dose: 20.0 mg/kg/injection, schedule: Q04DX003 (ip), vehicle: saline); 173 % of control (endpoint: median survival time, dose: 20.0 mg/kg/injection, schedule: Q04DX003 (ip), vehicle: water); 232 % of control (endpoint: median survival time, dose: 40.0 mg/kg/injection, schedule: Q04DX003 (ip), vehicle: saline); 170 % of control (endpoint: median survival time, dose: 40.0 mg/kg/injection, schedule: Q04DX003 (ip), vehicle: water); 116 % of control (endpoint: median survival time, dose: 80.0 mg/kg/injection, schedule: Q04DX003 (ip), vehicle: saline); 90 % of control (endpoint: median survival time, dose: 80.0 mg/kg/injection, schedule: Q04DX003 (ip), vehicle: water).

Consider `CN(C)c1ccc(C(=N)c2ccc(N(C)C)cc2)cc1` (tested in a mixture with another compound), for which the T/C runs as follows: (endpoint: mean survival time, dose: 12.5 mg/kg/injection, schedule: Q01DX009 (ip), vehicle: saline with Tween-80) 98 % of control; under setting [1], 93 % of control.

In the case of `CCCCOC1CCC2(C)C(=CCC3C2CCC2(C)C(C(C)CCCC(C)C)CCC32)C1` (stereo not drawn), the T/C by setting is: (endpoint: mean survival time, dose: 100.0 mg/kg/injection, schedule: Q01DX009 (sc), vehicle: steriod suspending solution) 114 % of control; (endpoint: mean survival time, dose: 100.0 mg/kg/injection, schedule: Q04DX003 (sc), vehicle: steriod suspending solution) 91 % of control; (endpoint: mean survival time, dose: 200.0 mg/kg/injection, schedule: Q01DX009 (sc), vehicle: steriod suspending solution) 102 % of control; (endpoint: mean survival time, dose: 200.0 mg/kg/injection, schedule: Q04DX003 (sc), vehicle: steriod suspending solution) 96 % of control; (endpoint: mean survival time, dose: 400.0 mg/kg/injection, schedule: Q01DX009 (sc), vehicle: steriod suspending solution) 103 % of control; (endpoint: mean survival time, dose: 400.0 mg/kg/injection, schedule: Q04DX003 (sc), vehicle: steriod suspending solution) 102 % of control.

Turning to `NCCSSCC(N)C(=O)O` (stereo not drawn), the T/C runs as follows: under setting [4], 106 % of control; under setting [5], 103 % of control; under setting [6], 94 % of control.
